For 6 compounds, EC50 results are on record in patent US11633459B2, “GIP derivatives and uses thereof” (priority 2018, dated 2023).

pEC50: −log10 of the molar value. *1 amine or outer side, *2 acyl side, *3 side chain or, on linkers, in order; H or OH if unused. Where a SMILES comes first, the peptide text is derived from it. Where no end group is shown, it is not given here. Side-chain parts run from the residue outwards. [ ]: non-standard residue; d: D form. The star is where a group is joined. X1 = O=C(O)CCCCCCCCCCCCCCCCCCC(=O)NCC1CCC(C(=O)*)CC1; C18 diacid = O=C(O)CCCCCCCCCCCCCCCCC(=O)*; γGlu = O=C(O)[C@H](CCC(=O)[*:2])N[*:1]; Nle = CCCC[C@H](N)C(=O)O; AEEA = NCCOCCOCC(=O)O; Aib = CC(C)(N)C(=O)O

The assay deals with T1, human GIP receptor (Homo sapiens, UniProt P48546).
T1 construct: expressed in transfected cells; host or cells: BHK cells (parent line BHKTS13), clone BHK CRE luc2P hGIPR clone #5
T1 sequence (P48546 22-466): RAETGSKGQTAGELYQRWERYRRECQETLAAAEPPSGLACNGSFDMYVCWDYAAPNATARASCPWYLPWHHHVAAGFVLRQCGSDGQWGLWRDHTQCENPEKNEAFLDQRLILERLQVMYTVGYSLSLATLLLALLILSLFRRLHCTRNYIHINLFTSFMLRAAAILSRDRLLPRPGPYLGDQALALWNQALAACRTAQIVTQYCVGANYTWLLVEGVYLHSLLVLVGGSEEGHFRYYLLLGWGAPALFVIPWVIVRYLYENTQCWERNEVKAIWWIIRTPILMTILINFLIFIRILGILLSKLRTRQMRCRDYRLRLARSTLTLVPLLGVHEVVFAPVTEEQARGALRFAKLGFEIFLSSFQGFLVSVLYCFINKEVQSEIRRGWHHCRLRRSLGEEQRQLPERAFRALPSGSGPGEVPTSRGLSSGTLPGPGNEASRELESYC
Kind of assay: In vitro potency, CRE luciferase reporter gene assay, whole BHK cells expressing human GIP receptor. In kind it is cell-based. The following applies: 0.2% HSA. As for the experimental part: In Vitro Potency (CRE Luciferase; Whole Cells)
The in vitro potency is the measure of human GIP, GLP-1 or glucagon receptor activation, respectively, in a whole cell assay.
In vitro potency was determined by measuring the response of the human GIP, GLP-1 or glucagon receptor in a reporter gene assay in individual cell lines. […] When the respective receptor is activated it results in the production of cAMP, which in turn results in the luciferase protein being expressed. When assay incubation is completed the luciferase substrate (luciferin) is added and the enzyme converts luciferin to oxyluciferin to produce bioluminescence. The luminescence is measured as the readout for the assay.
The cells were derived from a clone containing the CRE luciferase element and were established by further transfection with the respective receptor to obtain the current clone.
The cells were cultured at 5% CO2 in Cell Culture Medium. They were aliquoted and stored in liquid nitrogen. The cells were kept in passage and were seeded out the day before each assay.
The Assay Buffer consisted of 1% ovalbumin and 0.1% Pluronic F-68 in Assay Medium with the addition of human serum albumin at twice the indicated concentrations.
1) Cells were plated at 5000 cells/well and incubated overnight.
2) Cells were washed three times in PBS.
3) Assay Medium (50 μl aliquot) with or without serum albumin was added to each well in the assay plate.
4) Stocks of the test compounds and reference compounds were diluted to a concentration of 0.2 μM in Assay Buffer. […] 8) The cells were washed three times with PBS plus some liquid in each well. 9) A 100 μl aliquot of steadylite plus reagent was added to each well of the assay plate (reagent was light sensitive). 10) Each assay plate was covered with aluminum foil to protect it from light and shaken for 30 min at room temperature. 11) Each assay plate was read in a microtiter plate reader. Calculations and Results
The data from the microtiter plate reader was transferred to GraphPad Prism software. The software performs a non-linear regression (log(agonist) vs response).
A minimum of two replicates was measured for each sample. The reported values are averages of the replicates.
On the technique in general: A reporter such as luciferase makes a cellular process visible.

By pEC50 is commonly meant −log10 of the EC50, conventionally taken in molar units. In turn, `CCCC[C@H](NC(=O)[C@H](C)NC(=O)[C@@H](NC(=O)[C@H](CO)NC(=O)[C@H](Cc1ccc(O)cc1)NC(=O)[C@H](CC(=O)O)NC(=O)[C@H](CO)NC(=O)[C@@H](NC(=O)[C@H](Cc1ccccc1)NC(=O)[C@@H](NC(=O)CNC(=O)[C@H](CCC(=O)O)NC(=O)C(C)(C)NC(=O)[C@@H](N)Cc1ccc(O)cc1)[C@@H](C)O)[C@@H](C)CC)[C@@H](C)CC)C(=O)N[C@@H](CC(=O)O)C(=O)N[C@@H](CCCCN)C(=O)N[C@H](C(=O)N[C@@H](CCCNC(=N)N)C(=O)N[C@@H](CCC(N)=O)C(=O)N[C@@H](CCC(N)=O)C(=O)N[C@@H](CC(=O)O)C(=O)N[C@@H](Cc1ccccc1)C(=O)N[C@H](C(=O)N[C@@H](CCCCNC(=O)CC[C@H](NC(=O)CC[C@H](NC(=O)CC[C@H](NC(=O)C1CCC(CNC(=O)CCCCCCCCCCCCCCCCCCC(=O)O)CC1)C(=O)O)C(=O)O)C(=O)O)C(=O)N[C@@H](Cc1c[nH]c2ccccc12)C(=O)N[C@@H](CC(C)C)C(=O)N[C@@H](CC(C)C)C(=O)N[C@@H](C)C(=O)N[C@@H](CCC(N)=O)C(=O)N[C@@H](CCCCN)C(=O)NCC(=O)N[C@@H](CCCCN)C(=O)N[C@@H](CCC(=O)O)C(=O)N[C@@H](CCC(=O)O)C(=O)N[C@@H](CC(=O)O)C(=O)N[C@@H](Cc1c[nH]c2ccccc12)C(=O)N[C@@H](CCCCN)C(=O)N[C@@H](Cc1c[nH]cn1)C(=O)N[C@@H](CC(N)=O)C(=O)N[C@H](C(=O)N[C@H](C(=O)N[C@@H](CCC(N)=O)C(=O)O)[C@@H](C)O)[C@@H](C)CC)C(C)C)[C@@H](C)CC` (stereo partly drawn) [Compound 42, N{Epsilon-24}-[(4S)-4-carboxy-4-[[(4S)-4-carboxy-4-[[(4S)-4-carboxy-4-[[4-[(19-carboxynonadecanoylamino)methyl]cyclohexanecarbonyl]amino]butanoyl]amino]butanoyl]amino]butanoyl]-[Aib2,Nle14,Arg18,Lys24,Glu33,Glu34]-hGIP] gave a negative-log EC50 (pEC50) of 10.66.

“H-Y[Aib]EGTFISDYSIA[Nle]DKIHQQDFVK([γGlu-γGlu-γGlu-C18 diacid])WLLAQKGKENDWKHNITQ [Compound 33, N{Epsilon-24}-[(4S)-4-carboxy-4-[[(4S)-4-carboxy-4-[[(4S)-4-carboxy-4-(17-carboxyheptadecanoylamino)butanoyl]amino]butanoyl]amino]butanoyl]-[Aib2,Nle14,Lys24,Glu33]-hGIP]” showed a pEC50 of 10.67. `CCCC[C@H](NC(=O)[C@H](C)NC(=O)[C@@H](NC(=O)[C@H](CO)NC(=O)[C@H](Cc1ccc(O)cc1)NC(=O)[C@H](CC(=O)O)NC(=O)[C@H](CO)NC(=O)[C@@H](NC(=O)[C@H](Cc1ccccc1)NC(=O)[C@@H](NC(=O)CNC(=O)[C@H](CCC(=O)O)NC(=O)C(C)(C)NC(=O)[C@@H](N)Cc1ccc(O)cc1)[C@@H](C)O)[C@@H](C)CC)[C@@H](C)CC)C(=O)N[C@@H](CC(=O)O)C(=O)N[C@@H](CCCCN)C(=O)N[C@H](C(=O)N[C@@H](Cc1c[nH]cn1)C(=O)N[C@@H](CCC(N)=O)C(=O)N[C@@H](CCC(=O)O)C(=O)N[C@@H](CC(=O)O)C(=O)N[C@@H](Cc1ccccc1)C(=O)N[C@H](C(=O)N[C@@H](CCCCNC(=O)CC[C@H](NC(=O)CC[C@H](NC(=O)CC[C@H](NC(=O)CC[C@H](NC(=O)C1CCC(CNC(=O)CCCCCCCCCCCCCCCCCCC(=O)O)CC1)C(=O)O)C(=O)O)C(=O)O)C(=O)O)C(=O)N[C@@H](Cc1c[nH]c2ccccc12)C(=O)N[C@@H](CC(C)C)C(=O)N[C@@H](CC(C)C)C(=O)N[C@@H](C)C(=O)N[C@@H](CCC(N)=O)C(=O)N[C@@H](CCCCN)C(=O)NCC(=O)O)C(C)C)[C@@H](C)CC` (stereo partly drawn) [Compound 21, N{Epsilon-24}-[(4S)-4-carboxy-4-[[(4S)-4-carboxy-4-[[(4S)-4-carboxy-4-[[(4S)-4-carboxy-4-[[4-[(19-carboxynonadecanoylamino)methyl]cyclohexanecarbonyl]amino]butanoyl]-amino]butanoyl]amino]butanoyl]amino]butanoyl]-[Aib2,Nle14,Glu20,Lys24]-hGIP(1-31)] (H-Y[Aib]EGTFISDYSIA[Nle]DKIHQEDFVK([γGlu-γGlu-γGlu-γGlu-X1])WLLAQKG-OH) gave a pEC50 of 9.09.

For the compound `CCCC[C@H](NC(=O)[C@H](C)NC(=O)[C@@H](NC(=O)[C@H](CO)NC(=O)[C@H](Cc1ccc(O)cc1)NC(=O)[C@H](CC(=O)O)NC(=O)[C@H](CO)NC(=O)[C@@H](NC(=O)[C@H](Cc1ccccc1)NC(=O)[C@@H](NC(=O)CNC(=O)[C@H](CCC(=O)O)NC(=O)C(C)(C)NC(=O)[C@@H](N)Cc1ccc(O)cc1)[C@@H](C)O)[C@@H](C)CC)[C@@H](C)CC)C(=O)N[C@@H](CC(=O)O)C(=O)N[C@@H](CCCCN)C(=O)N[C@H](C(=O)N[C@@H](CCCNC(=N)N)C(=O)N[C@@H](CCC(N)=O)C(=O)N[C@@H](CCC(N)=O)C(=O)N[C@@H](CC(=O)O)C(=O)N[C@@H](Cc1ccccc1)C(=O)N[C@H](C(=O)N[C@@H](CCCCNC(=O)COCCOCCNC(=O)COCCOCCNC(=O)CC[C@H](NC(=O)C1CCC(CNC(=O)CCCCCCCCCCCCCCCCCCC(=O)O)CC1)C(=O)O)C(=O)N[C@@H](Cc1c[nH]c2ccccc12)C(=O)N[C@@H](CC(C)C)C(=O)N[C@@H](CC(C)C)C(=O)N[C@@H](C)C(=O)N[C@@H](CCC(N)=O)C(=O)N[C@@H](CCCCN)C(=O)NCC(=O)N[C@@H](CCCCN)C(=O)N[C@@H](CCC(=O)O)C(=O)N[C@@H](CCC(=O)O)C(=O)N[C@@H](CC(=O)O)C(=O)N[C@@H](Cc1c[nH]c2ccccc12)C(=O)N[C@@H](CCCCN)C(=O)N[C@@H](Cc1c[nH]cn1)C(=O)N[C@@H](CC(N)=O)C(=O)N[C@H](C(=O)N[C@H](C(=O)N[C@@H](CCC(N)=O)C(=O)O)[C@@H](C)O)[C@@H](C)CC)C(C)C)[C@@H](C)CC` (stereo partly drawn) [Compound 41, N{Epsilon-24}-[2-[2-[2-[[2-[2-[2-[[(4S)-4-carboxy-4-[[4-[(19-carboxynonadecanoyl-amino)methyl]cyclohexanecarbonyl]amino]butanoyl]amino]ethoxy]ethoxy]acetyl]amino]ethoxy]ethoxy]acetyl]-[Aib2,Nle14,Arg18,Lys24,Glu33,Glu34]-hGIP], the pEC50 is 10.85. As for `CCCC[C@H](NC(=O)[C@H](C)NC(=O)[C@@H](NC(=O)[C@H](CO)NC(=O)[C@H](Cc1ccc(O)cc1)NC(=O)[C@H](CC(=O)O)NC(=O)[C@H](CO)NC(=O)[C@@H](NC(=O)[C@H](Cc1ccccc1)NC(=O)[C@@H](NC(=O)CNC(=O)[C@H](CCC(=O)O)NC(=O)C(C)(C)NC(=O)[C@@H](N)Cc1ccc(O)cc1)[C@@H](C)O)[C@@H](C)CC)[C@@H](C)CC)C(=O)N[C@@H](CC(=O)O)C(=O)N[C@@H](C)C(=O)N[C@H](C(=O)N[C@@H](CCCNC(=N)N)C(=O)N[C@@H](CCC(N)=O)C(=O)N[C@@H](CCC(N)=O)C(=O)N[C@@H](CC(=O)O)C(=O)N[C@@H](Cc1ccccc1)C(=O)N[C@H](C(=O)N[C@@H](CCCCNC(=O)CC[C@H](NC(=O)CC[C@H](NC(=O)CC[C@H](NC(=O)C1CCC(CNC(=O)CCCCCCCCCCCCCCCCCCC(=O)O)CC1)C(=O)O)C(=O)O)C(=O)O)C(=O)N[C@@H](Cc1c[nH]c2ccccc12)C(=O)N[C@@H](CC(C)C)C(=O)N[C@@H](CC(C)C)C(=O)N[C@@H](C)C(=O)N[C@@H](CCC(N)=O)C(=O)N[C@@H](CCCCN)C(=O)NCC(=O)O)C(C)C)[C@@H](C)CC` (stereo partly drawn) [Compound 14, N{Epsilon-24}-[(4S)-4-carboxy-4-[[(4S)-4-carboxy-4-[[(4S)-4-carboxy-4-[[4-[(19-carboxynonadecanoylamino)methyl]cyclohexanecarbonyl]amino]butanoyl]amino]-butanoyl]amino]butanoyl]-[Aib2,Nle14,Ala16,Arg18,Lys24]-hGIP(1-31)] (H-Y[Aib]EGTFISDYSIA[Nle]DAIRQQDFVK([γGlu-γGlu-γGlu-X1])WLLAQKG-OH), the pEC50 is 9.58. Then “H-Y[Aib]EGTFISDYSIALDKIHQQDFVK([AEEA-AEEA-γGlu-C18 diacid])WLLAQKGKKNDWKHNITQ [Compound 45, N{Epsilon-24}-[2-[2-[2-[[2-[2-[2-[[(4S)-4-carboxy-4-(17-carboxyheptadecanoylamino)butanoyl]amino]ethoxy]ethoxy]acetyl]amino]ethoxy]ethoxy]acetyl]-[Aib2,Leu14,Lys24]-hGIP]”, with 10.25.
